Experimental data as given in PMC6700280, “Identification of Novel 3-Hydroxy-pyran-4-One Derivatives as Potent HIV-1 Integrase Inhibitors Using in silico Structure-Based Combinatorial Library Design Approach” (Frontiers in Chemistry, 2019).
Like-named read-outs stand apart in the source and are kept apart here.

Experiments:
[1] = target: T1, HIV-1 IN strand transfer activity (Human immunodeficiency virus type 1 group M subtype B, UniProt P04585); experiment: HIV-1 IN strand transfer assay (ELISA, pre-cleaved oligonucleotide substrate)
Method: The enzymatic integration reactions were carried out as previously described with minor modifications (Debyser et al., [2001]; Christ et al., [2011]). To determine the susceptibility of the HIV-1 IN enzyme to different compounds, an enzyme-linked immunosorbent assay (ELISA) adapted from Hwang et al. was used (Hwang et al., [2000]). The overall integration assay uses an oligonucleotide substrate for which one oligonucleotide (5′-[sequence]-3′) is labeled with biotin at the 3′ end and the other oligonucleotide (5′-[sequence]-3′) is labeled with digoxigenin at the 5′ end. For the strand transfer assay, a pre-cleaved oligonucleotide substrate (the second oligonucleotide lacks GT [underlined] at the 3′ end) was used. The IN enzyme was diluted in 750 mM NaCl, 10 mM Tris (pH: 7.6), 10% glycerol, and 1 mM β-mercaptoethanol. To perform the reaction, 4 μL of diluted IN (corresponding to a concentration of 1.6 μM) and 4 μL of annealed oligonucleotides (7 nM) were added in a final reaction volume of 40 μL containing 10 mM MgCl2, 5 mM dithiothreitol, 20 mM HEPES (pH 7.5), 5% polyethylene glycol, and 15% dimethyl sulfoxide. As such, the final concentration of IN in this assay was 160 nM. The reaction was carried out for 1 h at 37°C. Reaction products were denatured with 30 mM NaOH and detected by ELISA on avidin-coated plates.

HIV-1 IN [2] = target: T2, HIV-1 IN (Human immunodeficiency virus type 1 group M subtype B, UniProt P04585); experiment: Overall HIV-1 IN integration assay (ELISA); assay type: biochemical
[3] = MT-4/MTT cytotoxicity assay; assay type: cell-based, human; details: human, MT-4 cells; read-out: Cellular toxicity CC50
Method: (§1) The inhibitory effect of antiviral drugs on the HIV-induced cytopathic effect (CPE) in human lymphocyte MT-4 cell culture was determined by the MT-4/MTT-assay (Pauwels et al., [1988]). […] The 50% cell culture infective dose of the HIV strains was determined by titration of the virus stock using MT-4 cells. For the drug susceptibility assays, MT-4 cells were infected with 100–300 50% cell culture infective doses of the HIV strains in the presence of 5-fold serial dilutions of the antiviral drugs. […] In parallel, the concentration of the compound destroying 50% of the MT-4 cells, which is defined as the 50% cytotoxic concentration (CC50), was determined as well.

MT-4 cells [4] = experiment: MT-4/MTT cytotoxicity assay; assay type: cell-based, human
Method: as §1

HIV-1 [5] = experiment: MT-4/MTT anti-HIV assay (HIV-induced cytopathic effect); assay type: cell-based; details: Human immunodeficiency virus 1, MT4; MT-4 cells; read-out: HIV-1 activity inhibition EC50
Method: The inhibitory effect of antiviral drugs on the HIV-induced cytopathic effect (CPE) in human lymphocyte MT-4 cell culture was determined by the MT-4/MTT-assay (Pauwels et al., [1988]). This assay is based on the reduction of the yellow colored 3-(4,5-dimethylthiazol-2-yl)-2,5-diphenyltetrazolium bromide (MTT) by mitochondrial dehydrogenase of metabolically active cells to a blue formazan derivative, which can be measured spectrophotometrically. The 50% cell culture infective dose of the HIV strains was determined by titration of the virus stock using MT-4 cells. For the drug susceptibility assays, MT-4 cells were infected with 100–300 50% cell culture infective doses of the HIV strains in the presence of 5-fold serial dilutions of the antiviral drugs. The concentration of the compound achieving 50% protection against the CPE of HIV, which is defined as the 50% effective concentration (EC50), was determined. In parallel, the concentration of the compound destroying 50% of the MT-4 cells, which is defined as the 50% cytotoxic concentration (CC50), was determined as well.

[6] = target: T1, HIV-1 IN strand transfer activity; design: method as in Sirous et al., 2019; details: read-out: HIV-1 IN strand transfer activity inhibition IC50; previously reported lead; ref Sirous et al., 2019; cited from earlier work
HIV-1 IN [7] = target: T2, HIV-1 IN; design: method as in Sirous et al., 2019; details: read-out: Overall HIV-1 IN activity inhibition IC50; previously reported lead; ref Sirous et al., 2019; cited from earlier work
MT-4 cells [8] = tested on: MT-4 cells; design: method as in Sirous et al., 2019; details: previously reported lead, cited from earlier work; for CC50: ref Sirous et al., 2019, read-out: Cellular toxicity CC50; for TI (therapeutic index, CC50/EC50 ratio): ref Sirous et al., 2019
HIV-1 [9] = tested on: HIV-1; design: method as in Sirous et al., 2019; details: MT-4 cells; previously reported lead; ref Sirous et al., 2019; read-out: HIV-1 activity inhibition EC50; cited from earlier work

Row | SMILES | IC50 [1] [nM] | IC50 (HIV-1 IN [2]) [nM] | improvement in anti-IN potency compared to HPb (HIV-1 IN [2]; vs HPb IC50 = 0.37 μM) [fold] | CC50 [3] [nM] | TI (therapeutic index, CC50/EC50 ratio) (MT-4 cells [4]) | EC50 (HIV-1 [5]) [nM] | IC50 [6] [nM] | IC50 (HIV-1 IN [7]) [nM] | CC50 (MT-4 cells [8]) [nM] | TI (therapeutic index, CC50/EC50 ratio) (MT-4 cells [8]) | EC50 (HIV-1 [9]) [nM]
1 | Cc1cc(=O)c(O)c(C(=O)NCc2cc(F)cc(-c3ccccn3)c2)o1 [HPCAR-28, N-(3-Fluoro-5-(pyridin-2-yl)benzyl)-3-hydroxy-6-methyl-4-oxo-4H-pyran-2-carboxamide] | 3370 ± 380 | 65 ± 10 | 6 | > 250000 | >1,087 | 230 ± 180 | – | – | – | – | –
2 | Cc1cc(=O)c(O)c(C(=O)NCc2ccc(F)cc2)o1 [HPb] | – | – | – | – | – | – | 1405 ± 10 | 370 ± 170 | > 250000 | >145 | 1720 ± 990
3 | Cc1nnc(C(=O)NC(C)(C)c2nc(C(=O)NCc3ccc(F)cc3)c(O)c(=O)n2C)o1 [RLT, Raltegravir, reference compound] | – | – | – | > 18300 | – | 13 ± 8 | – | – | – | – | –
4 | Cc1cc(=O)c(O)c(C(=O)NCc2ccc(Cl)cc2)o1 [HPd] | – | – | – | – | – | – | 1540 ± 200 | 700 ± 310 | 196000 ± 4400 | 100.3 | 1950 ± 930
5 | Cc1nc(-c2cccc(CNC(=O)c3oc(C)cc(=O)c3O)c2)c[nH]1 [HPCAR-89, 3-Hydroxy-6-methyl-N-(3-(2-methyl-1H-imidazol-4-yl)benzyl)-4-oxo-4H-pyran-2 carboxamide] | 4000 ± 340 | 270 ± 100 | – | > 125000 | >53.4 | 2340 ± 460 | – | – | – | – | –
6 | Cc1cc(=O)c(O)c(C(=O)NCc2cccc(-n3cccc3)c2)o1 [HPCAR-142, N-(3-(1H-Pyrrol-1-yl)benzyl)-3-hydroxy-6-methyl-4-oxo-4H-pyran-2-carboxamide] | 17490 ± 130 | 1970 ± 1060 | – | > 85400 | >20.3 | 4210 ± 520 | – | – | – | – | –
